The nature of data set [1]: Drug uptake in human A-172 cells at 10 uM incubated for 8 hrs by DAPI staining based immunofluorescence analysis. The class given is ADME, cell-based. As to conditions: a 172, 8 h.
Data set [2] in a line: Stability of compound at pH 2 assessed as drug hydrolysis measured after 72 hrs by HPLC analysis. The class given is physicochemical. The conditions noted are these: buffer, read-out: Drug degradation.
Data set [3] deals with DNA. Nature of the data set: Binding affinity to DNA (unknown origin) assessed as intercalation by measuring hypsochromic shift at 100 uM by UV-Vis absorption spectra. The class given is nucleic-acid assay.
Data set [4] deals with T98G. Nature of the data set: Cytotoxicity against human T98G cells assessed as reduction in cell viability at 10 uM glucose deprived for 8 hrs followed by compound addition and measured after 48 hrs by MTT assay relative to control. The class given is functional, cell-based. In general terms: Tetrazolium assays rely on reduction of a dye to a coloured formazan, in cell work by metabolically active cells.

Data set [5] is described as follows: Drug uptake in human A-172 cells assessed as red appearance incubated for 24 hrs by imaging analysis. As to conditions: a 172, 24 h. The class given is ADME, cell-based.
Data set [6] in a line: Stability of compound in T98G GBM cell culture media at pH 6.8 measured after 72 hrs by HPLC analysis. The class given is physicochemical. As to conditions: pH 6.8, 72 h.
Data set [7] is described as follows: Drug uptake in human SVG p12 cells at 10 uM incubated for 8 hrs by DAPI staining based immunofluorescence analysis. The class given is ADME, cell-based. As to conditions: svg p12, 8 h.
Data set [8] has as its system DNA. Nature of the data set: Binding affinity to DNA (unknown origin) assessed as Stem-Volmer quenching constant by fluorescence spectral analysis. The class given is nucleic-acid assay.
In data set [9] the test system is A 172. Nature of the data set: Cytotoxicity against human A-172 cells assessed as reduction in cell viability at 10 uM glucose deprived for 8 hrs followed by compound addition and measured after 24 to 48 hrs by MTT assay relative to control. The conditions noted are these: time 24-48 hrs. The class given is functional, cell-based.
A short description of data set [10]: Stability of compound at pH 5.0 incubated for 72 hrs by HPLC analysis. The class given is physicochemical. The conditions noted are these: buffer, pH 5, 72 h.
Data set [11] is described as follows: Drug uptake in human T98G cells at 10 uM incubated for 8 hrs by DAPI staining based immunofluorescence analysis. The class given is ADME, cell-based.
A short description of data set [12]: Drug uptake in human T98G cells assessed as red appearance incubated for 24 hrs by imaging analysis. The class given is ADME, cell-based.
Data set [13] is described as follows: Stability of compound at pH 7.4 incubated for 72 hrs by HPLC analysis. The conditions noted are these: buffer, pH 7.4, 72 h. The class given is physicochemical.
For data set [14], the system named is A 172. Briefly: Cytotoxicity against human A-172 cells co-cultured with MDCK-II cells transfected with human P-gp assessed as cell viability at 100 uM pretreated for 2 hrs followed by […] cell removal and measured after 48 hrs by MTT assay relative to control. The class given is functional. The conditions noted are these: time 50 hrs, read-out: Activity.

The test system of data set [15] is A 172. Nature of the data set: Cytotoxicity against human A-172 cells assessed as reduction in cell viability at 10 uM incubated for 24 to 48 hrs by MTT assay. The class given is functional, cell-based. The conditions noted are these: time 24-48 hrs.
Data set [16] relates to DNA. Nature of the data set: Binding affinity to DNA (unknown origin) assessed as intercalative binding constant (Ka) by UV-Vis absorption spectra. The class given is nucleic-acid assay.
For data set [17], the system named is T98G. Briefly: Induction of apoptosis in human T98G cells assessed as apoptotic rate at 10 uM incubated for 24 hrs by TUNEL assay relative to control. The class given is functional.
In data set [18] the test system is T98G. Nature of the data set: Cytotoxicity against human T98G cells assessed as reduction in cell viability at 10 uM glucose deprived for 8 hrs followed by compound addition and measured after 24 hrs by MTT assay relative to control. The class given is functional, cell-based.
The nature of data set [19]: Cytotoxicity against human T98G cells co-cultured with MDCK-II cells transfected with human P-gp assessed as cell viability at 100 uM pretreated for 2 hrs followed by […] cell removal and measured after 48 hrs by MTT assay relative to control. The class given is functional. The conditions noted are these: time 50 hrs, read-out: Activity.
Data set [20] relates to A 172. Briefly: Induction of apoptosis in human A-172 cells assessed as apoptotic rate at 10 uM incubated for 24 hrs by TUNEL assay relative to control. The class given is functional.
In data set [21] the test system is T98G. Nature of the data set: Induction of DNA damage in human T98G cells at 10 uM incubated for 24 hrs by TUNEL assay. The class given is functional, cell-based.
Data set [22] can be described thus: Stability of compound at pH 2 measured after 24 hrs by HPLC analysis. The class given is physicochemical. As to conditions: buffer, pH 2, 24 h.
Data set [23] can be described thus: Stability of compound at pH 3.5 incubated for 72 hrs by HPLC analysis. The class given is physicochemical. The conditions noted are these: buffer, pH 3.5, 72 h.
Data set [24] deals with T98G. Briefly: Cytotoxicity against human T98G cells assessed as cell viability at 10 uM incubated for 24 hrs by MTT assay relative to control. The class given is functional.
A short description of data set [25]: Cytotoxicity against human SVG p12 cells assessed as reduction in cell viability at 10 uM incubated for 24 to 48 hrs by MTT assay. The class given is toxicity, cell-based. The conditions noted are these: svg p12, 10 µM, time 24-48 hrs.
Data set [26] concerns T98G. Briefly: Cytotoxicity against human T98G cells assessed as reduction in cell viability at 10 uM incubated for 48 hrs by MTT assay. The class given is functional, cell-based.
For data set [27], the system named is A 172. Briefly: Induction of DNA damage in human A-172 cells at 10 uM incubated for 24 hrs by TUNEL assay. The class given is functional, cell-based.

Structures are written as SMILES. The source made the active and inactive calls. No cut-off for these calls is given here.

On to `COc1cccc2c1C(=O)c1c(O)c3c(c(O)c1C2=O)C[C@@](O)(/C(CO)=N\OCC(=O)NC[C@H]1O[C@H](OC)[C@H](O)[C@@H](O)[C@@H]1O)C[C@@H]3O[C@H]1C[C@H](N)[C@H](O)[C@H](C)O1`, for which the Drug uptake result in [1], in data set [5], in [7], in data set [11] and in data set [12] was “Not Active” in each case. In data set [2], the degraded at 72 h is 46%. The outcome in the data set with DNA [3], in the data set on A 172 [9] and with A 172 [15] was Active. Moreover, the outcome in the data set on T98G [4], in the data set with T98G [17], in the data set with T98G [18] and in the data set on T98G [21] was inactive. The Stability result is recorded as “Stable” in data set [6]; “Stable” in data set [10]; “Stable” in [13]; “Unstable” in data set [22]; “Stable” in [23]. Moreover, in the data set on DNA [8], the KSV was 4.4 10^5/M. For the same compound, the viability at 100 µM is 129% in the data set with A 172 [14] and 76% in [19]. For the same compound, the K with DNA [16] was 3.5 10^5/M. Further, the Activity in the data set on A 172 [20] came to 32%.

Turning to `COc1cccc2c1C(=O)c1c(O)c3c(c(O)c1C2=O)C[C@@](O)(/C(CO)=N\OCC(=O)NCc1cn(C[C@H]2O[C@H](OC)[C@H](O)[C@@H](O)[C@@H]2O)nn1)C[C@@H]3O[C@H]1C[C@H](N)[C@H](O)[C@H](C)O1`, the Drug uptake result in data set [1], in data set [5], in data set [7], in [11] and in data set [12] was “Active” each time. Moreover, in data set [2], the degraded at 72 h stood at 49%. Further, the outcome with DNA [3], with T98G [4], in the data set on A 172 [9], with A 172 [15], in the data set with T98G [26] and in the data set on A 172 [27] was Active. In the data set with T98G [21], the result was Active. Also, in the data set on T98G [24] (read-out: Activity), the viability at 10 µM was 80%. Further, the Stability result in data set [6] is “Stable”; in data set [10], “Stable”; in [13], “Stable”; in data set [22] it was “Unstable”; in data set [23] it was “Stable”. Moreover, the KSV in the data set on DNA [8] is 3.5 10^5/M. Further, the Activity entry in [25] is “Non-Toxic”; in the data set on T98G [17], 116%; in the data set with A 172 [20], 202%. For the same compound, the viability at 100 µM with A 172 [14] came out at 58%; in [19] it was 62%. For the same compound, in the data set with DNA [16], the K was 2.7 10^5/M. Besides, in the data set on T98G [18], the result was inactive.

As for `COc1cccc2c1C(=O)c1c(O)c3c(c(O)c1C2=O)C[C@@](O)(C(=O)CO)C[C@@H]3O[C@H]1C[C@H](N)[C@H](O)[C@H](C)O1` [DOXORUBICIN], the Drug uptake entry in data set [1], in [7] and in data set [11] was “Active” throughout. Besides, the result in the data set with T98G [24] and in the data set with T98G [18] was inactive. For the same compound, the result with T98G [4], in the data set on A 172 [9], with A 172 [15], in the data set on A 172 [27] and in the data set with T98G [21] was Active. The KSV in the data set with DNA [8] was 3.1 10^5/M. The Activity result was “Toxic” in data set [25], 122% with T98G [17] and 102% with A 172 [20]. In addition, the viability at 100 µM with A 172 [14] worked out at 94%; in data set [19] it was 73%. Moreover, the K in the data set with DNA [16] was 3.3 10^5/M.

Source of the values: ChEMBL document CHEMBL6071195, “Oxime Linked Doxorubicin Glycoconjugates Improve the Specific Targeting of Glioblastoma in High-Grade Glioma Therapy” (ACS Med Chem Lett, 2024).
